According to US20220030868A1, “FUNGICIDAL HALOMETHYL KETONES AND HYDRATES” (FMC CORPORATION, priority 2018, published 2022):

Tests used:
Phakopsora pachyrhizi = experiment: Test A: test suspension sprayed on soybean seedlings one day before inoculation with Phakopsora pachyrhizi spores (Asian soybean rust), visual disease rating; assay type: in vivo; details: 100 = 100% disease control, 0 = no control
Text: General protocol for preparing test suspensions for Tests A-C: the test compounds were first dissolved in acetone in an amount equal to 3% of the final volume and then suspended at the desired concentration (in ppm) in acetone and purified water (50/50 mix by volume) containing 250 ppm of the surfactant PEG400 (polyhydric alcohol esters). The resulting test suspensions were then used in Tests A-C.
The test solution was sprayed to the point of run-off on soybean seedlings. The following day the seedlings were inoculated with a spore suspension of Phakopsora pachyrhizi (the causal agent of Asian soybean rust) and incubated in a saturated atmosphere at 22° C. for 24 h, and then moved to a growth chamber at 22° C. for 8 days, after which time visual disease ratings were made.
Results for Tests A-C are given in Table A. In the Table, a rating of 100 indicates 100% disease control and a rating of 0 indicates no disease control (relative to the controls). An asterisk “*” or a double asterisk “**” next to the rating value indicates a 50 ppm or 10 ppm test suspension was used, respectively. A dash (-) indicates the compound was not tested.

[1] = test system: Puccinia recondita f. sp. tritici; experiment: Test B: test suspension sprayed on wheat seedlings one day before inoculation with Puccinia recondita f. sp. tritici spores (wheat leaf rust), disease rating; assay type: in vivo; details: 100 = 100% disease control, 0 = no control
Text: General protocol for preparing test suspensions for Tests A-C: the test compounds were first dissolved in acetone in an amount equal to 3% of the final volume and then suspended at the desired concentration (in ppm) in acetone and purified water (50/50 mix by volume) containing 250 ppm of the surfactant PEG400 (polyhydric alcohol esters). The resulting test suspensions were then used in Tests A-C. The test solution was sprayed to the point of run-off on wheat seedlings. The following day the seedlings were inoculated with a spore suspension of Puccinia recondita f. sp. tritici (the causal agent of wheat leaf rust) and incubated in a saturated atmosphere at 20° C. for 24 h, and then moved to a growth chamber at 20° C. for 6 days, after which time disease ratings were made. Results for Tests A-C are given in Table A. In the Table, a rating of 100 indicates 100% disease control and a rating of 0 indicates no disease control (relative to the controls). An asterisk “*” or a double asterisk “**” next to the rating value indicates a 50 ppm or 10 ppm test suspension was used, respectively. A dash (-) indicates the compound was not tested.

| SMILES | Test A rating (disease control) (Phakopsora pachyrhizi; 10 ppm test suspension) | Test B rating (disease control) ([1]; 10 ppm test suspension) | also measured |
| --- | --- | --- | --- |
| CCO/C(=C\Oc1cccc(Cn2cc(C(=O)OC(C)C)cn2)c1)C(F)(F)F [compound 332] | 100% | 0% |  |
| O=C(OC1CCC1)c1cnn(Cc2ccc(OCC3(C(F)(F)F)OCCO3)cc2)c1 [compound 318] | 100% | 0% |  |
| CC(=O)COC(=O)c1cnn(Cc2ccc(OCC3(C(F)(F)F)OCCO3)cc2)c1 [compound 169] | 100% | 0% |  |
| CCO/C(=C\Oc1ccc(Cn2ncnc2C#N)cc1)C(F)(F)F [Compound 81] | 0% | 0% |  |
| CCO/C(=C\Oc1ccc(Cn2ccc(C(=O)OC)n2)cc1)C(F)(F)F [compound 251] | 100% | 9% |  |
| CCOC(=O)c1cnn(Cc2ccc(OCC3(C(F)(F)F)NCCO3)cc2)c1 (stereo not drawn) [Compound 21] | 84% | 23% |  |
| CCO/C(=C\Oc1ccc(S(C)(=O)=O)cc1)C(F)(F)F [compound 60] | 0% | 0% |  |
| CCOC(=O)c1ccnn1Cc1ccc(OCC(O)(O)C(F)(F)F)cc1 [Compound 234] |  |  | Test A rating (disease control) (Phakopsora pachyrhizi; 50 ppm test suspension): 100%; Test B rating (disease control) ([1]; 50 ppm test suspension): 92% |
| O=C(OCC(=O)C1CCCCC1)c1cnn(Cc2ccc(OCC3(C(F)(F)F)OCCO3)cc2)c1 [compound 202] | 100% | 0% |  |
| C[Si](C)(C)CCOc1nccc(Cc2ccc(OCC3(C(F)(F)F)OCCO3)cc2)n1 [compound 314] |  |  | Test A rating (disease control) (Phakopsora pachyrhizi; 50 ppm test suspension): 0%; Test B rating (disease control) ([1]; 50 ppm test suspension): 0% |
| CCOC(=O)Cc1nnnn1Cc1ccc(O/C=C(\OCC)C(F)(F)F)cc1 [compound 84] | 0% | 0% |  |
| O=C(NCC1CC1)c1cnc(Cc2ccc(OCC3(C(F)(F)F)OCCO3)cc2)o1 [Compound 248] | 71% | 0% |  |
| CCO/C(=C\Oc1ccc(C(=O)NC)cc1)C(F)(F)F [compound 105] | 0% | 68% |  |
| CCO/C(=C\Oc1ccc(Cn2ccc(C(=O)OCC3CCC3)n2)cc1)C(F)(F)F [compound 361] | 100% | 0% |  |
| FC(F)(F)C1(COc2ccc(Oc3ccccc3)cc2)OCCO1 [compound 191] | 0% | 0% |  |
| C=C(C)COC(=O)c1cnn(Cc2ccc(O/C=C(\OCC)C(F)(F)F)cc2)c1 [compound 242] | 100% | 0% |  |
| CCOC(=O)c1ccn(Cc2ccc(OCC(O)(O)C(F)(F)F)cc2)n1 [Compound 233] |  |  | Test A rating (disease control) (Phakopsora pachyrhizi; 50 ppm test suspension): 100%; Test B rating (disease control) ([1]; 50 ppm test suspension): 96% |
| COC(=O)c1cnn(Cc2ccc(OCC(O)(O)C(F)(F)F)cc2)c1 [Compound 37] | 99% | 86% |  |
| CCO/C(=C\Oc1ccc(Cn2ccc(C(=O)OC(C)(C)C)n2)cc1)C(F)(F)F [compound 253] | 0% | 0% |  |
| CC(C)OC(=O)c1cnn(Cc2ccc(OCC(O)(O)C(F)(F)F)cc2)c1 [Compound 39] | 91% | 79% |  |
| CCOC(=O)c1cnn(Cc2cc(O/C=C(\OCC)C(F)(F)F)ccc2F)c1 [compound 302] |  |  | pest or weed control at 50 ppm (Phakopsora pachyrhizi; Phakopsora pachyrhizi, 50 ppm test suspension): 99%; pest or weed control at 50 ppm ([1]; 50 ppm test suspension): 0% |
| C=C(C)COC(=O)c1cnn(Cc2ccc(OCC3(C(F)(F)F)OCCO3)cc2)c1 [compound 228] | 100% | 0% |  |
| O=S(=O)(NCc1ccc(OCC2(C(F)(F)F)OCCO2)cc1)C(F)(F)F [compound 207] | 0% | 0% |  |
| CCO/C(=C\Oc1ccc(Cn2ccc(C(=O)OCCCCl)n2)cc1)C(F)(F)F [compound 362] | 100% | 0% |  |
